PMC9538944, “In vitro biotransformation assays using fish liver cells: Comparing rainbow trout and carp hepatocytes” (Frontiers in Toxicology, 2022)
Several values for one entry are separate records, joined by “and”; a condition that tells them apart may be missing. Equal entries are not always repeated. Where two headings read alike, the source gives them in different places.

Experiments:
[1] = In vivo bioconcentration test OECD TG 305, trout; set-up: species or system Oncorhynchus mykiss; conditions: rainbow trout (Oncorhynchus mykiss); for concentration at 7 d: day 7 (uptake); for concentration at 40 d: day 40 (depuration)
Procedure: (§1) In vivo BCF values for MXC and BaP in carp and trout were determined in bioconcentration tests with both species in accordance to OECD TG 305 ([OECD, 2012]). The studies were approved by the State Agency for Nature, Environment and Consumer Protection (LANUV) North Rhine-Westphalia. The fish were exposed to a single concentration of both test items in a flow-through system for 35 days. No control groups were used. Dosing was performed by a solid-phase desorption system which was integrated in the fresh water supply allowing for a constant delivery of test concentrations to the fish chambers. The procedure of column generated concentrations was described in detail by [Schlechtriem et al. (2017)]. For the present study, two packed columns containing each 500 g Florisil® loaded with 200 mg of either MXC or BaP were used for each fish chamber. The uptake (exposure) phase of the study was followed by a 35 days depuration phase in uncontaminated water. The flow-through rate was maintained at 38.6 L/h for carp and 30.1 L/h for trout throughout the test. […] Additional 2-4 fish were sampled each, at the start and at the end of the exposure period, as well as at the end of the depuration period for lipid analysis. The total lipid content of the fish was measured individually by gravimetric analysis according to [Smedes (1999)].
(§2) Water samples (400 ml) were taken from the test chambers at least three times per week. Preparation for chemical analysis was performed by liquid-liquid extraction using n-hexane (10 ml) containing deuterated MXC (35 ng). The purified organic phase was subdivided into two equal parts and evaporated to dryness under a stream of nitrogen. One part of the residue was dissolved in 200 µL DCM for MXC analysis. The other part was mixed with 1 ml ACN: water (8:2, v/v) and subjected to BaP analysis. Whole fish samples were prepared for chemical analysis individually. After grinding the tissue with the addition of dry ice in a Thermomix™ 31 (Vorwerk), the finely powdered homogenate was lyophilized using an AdVantage freeze dryer (Ismatec). Aliquots of the dry samples (0.5 g) were spiked with deuterated internal standards (5 ng MXC-d6 and 0.2 ng BaP-d12) and extracted three times with acetone: DCM (1:1, v/v) (10 ml). The pooled extracts were then extracted with ultra-pure water (45 ml) and mixed with sodium chloride (5 g) to remove acetone and matrix. The organic phase was concentrated (0.5 ml) and dissolved in cyclohexane: DCM (1:1, v/v) (4.2 ml). This was subjected to gel permeation chromatography (GPC) (GILSON system equipped with pump 307, syringe pump 402, GX-271 liquid handler, 508 interface module, and Trilution® LC software; column i. d. 1.5 cm, material Bio-Beads S-X3, 200–400 mesh, Bio-Rad, flow rate 2 ml/min). Eluates containing MXC (26–31 min retention time) and BaP (32–38 min retention time) were evaporated to dryness and dissolved in hexane (1 ml) and toluol (50 µL), respectively. The collected MXC extracts were further concentrated by solid-phase extraction (SPE, Sep-Pak® Vac 12cc, 2 g, silica cartridges, Waters) using DCM: n-hexane (50:50, v/v) as eluent. Eluent and hexane were used to equilibrate and condition the column before sample loading and subsequent washing with DCM: n-hexane (30:70, v/v). The eluate containing MXC was dried down and reconstituted in toluol (0.5 ml).
(§3) MXC in the organic phase of samples from the in vitro incubations and in DCM extracts of water samples from the in vivo bioconcentration tests were analyzed by gas chromatography-mass spectrometry (GC-MS). The GC-MS system consisted of a HP5890 series II GC coupled to a HP5972 mass sensitive detector (Hewlett-Packard). Separations were performed on 5% phenyl polysilphenylene-siloxane capillary columns (BPX-5, 30 m length x 0.25 mm i. d, 0.25 µm df, SGE). […]

rainbow trout = assay: In vivo bioconcentration test OECD TG 305, trout; set-up: species or system Oncorhynchus mykiss
Procedure: as §1, §2, §3

[2] = in vivo, Cf data, concentration measured in individual fish
[3] = in vivo, rainbow trout, read-out: Mean Cf
[4] = in vivo, rainbow trout, day 14 (uptake), read-out: Mean Cf
[5] = in vivo, rainbow trout, day 21 (uptake), read-out: Mean Cf
[6] = in vivo, rainbow trout, day 28 (uptake), read-out: Mean Cf
[7] = in vivo, rainbow trout, day 35 (end of uptake), read-out: Mean Cf
[8] = in vivo, rainbow trout, day 44 (depuration), read-out: Mean Cf
[9] = rainbow trout (Oncorhynchus mykiss), in vivo
[10] = in vivo, rainbow trout, BaP background corrected, read-out: Cf data, concentration measured in individual fish

SMILES: c1ccc2c(c1)cc1ccc3cccc4ccc2c1c34 [BaP, benzo[a]pyrene]
- concentration at 14 d [1, 2]: 0.079 ng/g
- concentration at 21 d [1, 2]: 0.111 ng/g
- concentration at 28 d [1, 2]: 0.126 ng/g
- concentration at 35 d [1, 2]: 0.084 ng/g
- concentration at 44 d [1, 2]: 0.004 ng/g
- concentration at 7 d [1, 3]: 0.107 ng/g
- concentration at 14 d [1, 4]: 0.07 ng/g
- concentration at 21 d [1, 5]: 0.141 ng/g
- concentration at 28 d [1, 6]: 0.121 ng/g
- concentration at 35 d [1, 7]: 0.116 ng/g
- concentration at 40 d [1, 3]: 0.011 ng/g
- concentration at 44 d [1, 8]: 0.003 ng/g
- concentration at 21 d ([1]; whole fish, other: exposure via water in a flow-through system, rainbow trout, day 21 (uptake), BaP background corrected, read-out: Cf data, concentration measured in individual fish): 0.107 ng/g
- Cf,SS concentration in fish at steady-state (rainbow trout; [9]): 0.126 µg/kg
- kB, in vivo estimate Trout (rainbow trout; [9]): 0.40 day⁻¹
- kB, in vivo estimate, range of 95% probability (rainbow trout; [9]): 0.13 to 1.2 day⁻¹
- kT depuration rate constant (rainbow trout; [9]): 0.427 day⁻¹
- kTG growth corrected depuration rate constant (rainbow trout; [9]): 0.401 day⁻¹
- BCFSSL lipid-normalized steady-state bioconcentration factor (rainbow trout; rainbow trout (Oncorhynchus mykiss), in vivo, 35 d): 42.8 L/kg
- Cf data, concentration measured in individual fish (rainbow trout; rainbow trout (Oncorhynchus mykiss), in vivo, 44 d): 0.002 µg/kg

SMILES: COc1ccc(C(c2ccc(OC)cc2)C(Cl)(Cl)Cl)cc1 [MXC, methoxychlor]
- concentration at 7 d [1, 10]: 25.9 ng/g
- concentration at 7 d [1, 3]: 23 ng/g
- concentration at 14 d ([1]; in vivo, rainbow trout, day 14 (uptake), BaP background corrected, read-out: Cf data, concentration measured in individual fish): 27.1 ng/g
- concentration at 14 d [1, 4]: 21.1 ng/g
- concentration at 21 d ([1]; in vivo, rainbow trout, day 21 (uptake), BaP background corrected, read-out: Cf data, concentration measured in individual fish): 28 ng/g
- concentration at 21 d [1, 5]: 21.5 ng/g
- concentration at 28 d ([1]; in vivo, rainbow trout, day 28 (uptake), BaP background corrected, read-out: Cf data, concentration measured in individual fish): 53.2 ng/g
- concentration at 28 d [1, 6]: 41.9 ng/g
- concentration at 35 d [1, 7]: 46.4 ng/g
- concentration at 40 d [1, 10]: 9.62 ng/g
- concentration at 40 d [1, 3]: 13.8 ng/g
- concentration at 44 d [1, 8]: 6.06 ng/g
- concentration at 56 d ([1]; in vivo, rainbow trout, day 56 (depuration), outlier excluded, read-out: Mean Cf): 1.75 ng/g
- concentration at 70 d ([1]; in vivo, rainbow trout, day 70 (end of depuration), read-out: Mean Cf): 1.01 ng/g
- BCFSS (rainbow trout; Rainbow trout - high BCFSS): 3854 L/kg
- Cf,SS concentration in fish at steady-state (rainbow trout; Rainbow trout - high BCFSS): 44.1 µg/kg
- kTG growth corrected depuration rate constant (rainbow trout; Rainbow trout - high BCFSS): 0.201 day⁻¹
- kT depuration rate constant (rainbow trout; Rainbow trout - high BCFSS (kT-high, day 56-70 values excluded)): 0.227 day⁻¹
- BCFSSL lipid-normalized steady-state bioconcentration factor (rainbow trout; Rainbow trout - high BCFSS, 5% lipid content): 2122 L/kg
- Cf,SS concentration in fish at steady-state (rainbow trout; rainbow trout): 30.76 µg/kg
- kT depuration rate constant (rainbow trout; rainbow trout): 0.150 day⁻¹
- kTG growth corrected depuration rate constant (rainbow trout; rainbow trout): 0.124 day⁻¹
- BCFSSL lipid-normalized steady-state bioconcentration factor (rainbow trout; rainbow trout, 5% lipid content): 1479 L/kg
- Cf data, concentration measured in individual fish (rainbow trout; rainbow trout, day 7 (uptake), BaP background corrected): 30.0 µg/kg and 18.7 µg/kg and 17.4 µg/kg
- Cf data, concentration measured in individual fish (rainbow trout; rainbow trout, day 14 (uptake), BaP background corrected): 18.1 µg/kg and 25.4 µg/kg and 13.7 µg/kg
- Cf data, concentration measured in individual fish (rainbow trout; rainbow trout, day 21 (uptake), BaP background corrected): 23.9 µg/kg and 14.5 µg/kg and 19.4 µg/kg
- Cf data, concentration measured in individual fish (rainbow trout; rainbow trout, day 28 (uptake), BaP background corrected): 50.1 µg/kg and 34.5 µg/kg and 29.6 µg/kg
- Cf data, concentration measured in individual fish (rainbow trout; rainbow trout, day 35 (end of uptake), BaP background corrected): 50.9 µg/kg and 49.5 µg/kg and 23.5 µg/kg and 61.7 µg/kg
- Cf data, concentration measured in individual fish (rainbow trout; rainbow trout, day 40 (depuration), BaP background corrected): 15.9 µg/kg and 15.8 µg/kg
- Cf data, concentration measured in individual fish (rainbow trout; rainbow trout, day 44 (depuration), BaP background corrected): 2.19 µg/kg and 7.53 µg/kg and 8.23 µg/kg and 6.28 µg/kg
- Cf data, concentration measured in individual fish (rainbow trout; rainbow trout, day 56 (depuration), 5.42 identified as outlier and excluded): 5.42 µg/kg and 2.06 µg/kg and 2.23 µg/kg and 0.969 µg/kg
- Cf data, concentration measured in individual fish (rainbow trout; rainbow trout, day 70 (end of depuration)): 2.46 µg/kg and 0.320 µg/kg and 0.237 µg/kg
